Experimental data as given in patent US20260217764A1, “SELECTIVE INHIBITORS OF C. ACNES HYALURONIDASE” (priority 2022, published 2026).
Square brackets hold non-standard residues; d marks the D form. Ends that are not written are not given here. Peptide text beside a SMILES is read from it.

Columns and labels:
[1] = tested on: HL043PA1 strain; test: Mouse acne model, inhibitor co-injected i.d. with acne-associated HL043PA1 strain; format: in vivo, C. acnes; conditions: CD1 mice, 10 μg inhibitor co-injected i.d. with 2×10^7 CFU HL043PA1, disease score and skin cytokines 24 hr post-infection
Protocol: To model human acne disease, 8 weeks-old mice were i.d. infected with C. acnes strains (2×10^7 CFU in 50 μl volume of BHI media), followed by the topical application of synthetic sebum daily as described previously. i.d. infections were performed under vaporized Isoflurane (Fluriso, Vet One) anesthesia. Synthetic sebum was made by mixing fatty acid (17% oleic acid; Catalog no. #01008, Millipore Sigma), triglyceride (45% triolein; Catalog no. #ICN10312201, FisherScientific), wax monoester (25% jojoba oil, Trader Joe), and squalene (13%; Catalog no. #AC215351000, FisherScientific). One or two days after infection, disease score was assessed and the mice were euthanized by C02. Skin lesions were aseptically excised and harvested in phosphate buffer saline (PBS, pH 7.4). […]
Gross skin pathology was scored based on tabulation of the following: Erythematous change (no=0, mild=1, moderate 2, and marked=3); papule (flat=0, small=1, large=2. And extra-large=3) based on a protocol modified from.
For in vivo experiments, inhibitors (10 μg) were injected along with C. acnes strains (2×10^7 CFU) i.d. into CD1 mice, followed by the topical application of sebum. After 24 hr, bacterial count (CFU/ml), size of the skin lesions and proinflammatory cytokines (IL-1β, IL-6 and TNF-α) in skin lesions were measured. […]

[2] = target: T1, HylA (Cutibacterium acnes, UniProt A0A2B7ICX0); test: Microscale thermophoresis (MST) measurement of HylA binding to peptide inhibitors; design: species or system C. acnes
T1 construct: HylA (41-805) were cloned into; His6 (N); MBP (N); made in house; host or cells: E. coli BL21(DE3) pLysS
Protocol: The Monolith NT.115 instrument (Nanotemper Technologies, München, Germany) was used to measure the binding of peptide inhibitors to the HylA. For the MST experiment, the HylA is fluorescently labeled by cysteine labeling by using the Monolith protein labeling kit RED-MALEIMIDE 2nd generation (Catalog Number: L014). The assay is performed in 100 mM Sodium acetate buffer pH 5.3 supplied with 0.05% Tween-20. A serial dilution of the 1932 peptide (50 μM through 1.5 nM) was titrated against 30 nM fluorescent labeled HylA. For the titration, 10 μL of each concentration of the peptide was mixed with 10 μL of the fluorescent labeled HylA. The MST measurement settings include medium MST power, 40% excitation power, Nano-RED excitation type and 25° C. thermostat temperature. Affinity of the peptide binding to HylA was determined by the MO.Affinity Analysis Software (Nanotemper Technologies, München, Germany).

[3] = target: T2, rHylA (Cutibacterium acnes, UniProt A0A2B7ICX0); test: HA digested with rHylA in presence of inhibitor, digest applied to HaCaT cells, IL-6 by ELISA; format: cell-based, C. acnes; conditions: inhibitor 5 or 10 μM, HA 2 mg/ml digested with rHylA 24 hr, IL-6 in HaCaT culture supernatant
T2 construct: HylA (41-805) were cloned into; His6 (N); MBP (N); made in house; host or cells: E. coli BL21(DE3) pLysS
Protocol: HaCaT cells (ATCC) were cultured in complete DMEM media (Catalog no. 10-013-CV, Corning incorporated, USA) plus 10% heat-inactivated FBS in 5% C02 at 37° C. Before cell stimulation with digested HA (40 μg), HaCaT cells were seeded in 96-wells Falcon® 96-well tissue culture plate (Catalog no. #353072, corning incorporated, USA) at a concentration of 10^5 cells/ml and incubated in 5% CO2 at 37° C. for 6 hr, followed by washing with DMEM media and cell stimulation.
For BMDMs and HaCaT cell assays, an equivalent of 40 μg of HA digest was used to stimulate 10^5 cells for 8 and 16 hr, respectively. Cells were plated in a Falcon® 96-well tissue culture plate and cultured in 200 μl of complete RPMI medium supplemented with 10% FBS and 1× penicillin-streptomycin antibiotics solution. […]
IL-1β, IL-6, and TNF-α cytokine levels in skin homogenates, previously stored at −80° C., were measured by a solid-phase sandwich ELISA using commercially available mouse cytokine ELISA kits (Biolegend, San Diego, CA, USA). […] The plates were developed and read at optical density (OD) of 450 nm with a wavelength correction set to 570 nm in a multimode microplate reader (PerkinElmer, Waltham, MA, USA). […]

[4] = target: C. acnes hyaluronidase HylA, recombinant (rHylA), fluorescently labeled (C. acnes); test: Microscale thermophoresis (MST), peptide titrated against fluorescent labeled HylA
[5] = target: C. acnes hyaluronidase HylA, recombinant (rHylA), fluorescently labeled (C. acnes); test: not given; MST against fluorescent labeled HylA per the methods
[6] = target: T3, C. acnes hyaluronidase HylA, recombinant (rHylA), fluorescently labeled (C. acnes, UniProt A0A2B7ICX0 41-805, Fluorescently labelled on cysteine(s) with the RED-MALEIMIDE 2nd generation dye. Which cysteine carries the dye is not stated.); test: as above
T3 construct: TEV cleavage is described only for the crystallization preparation; not shown: N-terminal His6-MBP-TEV tag from the pET His6 MBP TEV LIC vector
T3 sequence: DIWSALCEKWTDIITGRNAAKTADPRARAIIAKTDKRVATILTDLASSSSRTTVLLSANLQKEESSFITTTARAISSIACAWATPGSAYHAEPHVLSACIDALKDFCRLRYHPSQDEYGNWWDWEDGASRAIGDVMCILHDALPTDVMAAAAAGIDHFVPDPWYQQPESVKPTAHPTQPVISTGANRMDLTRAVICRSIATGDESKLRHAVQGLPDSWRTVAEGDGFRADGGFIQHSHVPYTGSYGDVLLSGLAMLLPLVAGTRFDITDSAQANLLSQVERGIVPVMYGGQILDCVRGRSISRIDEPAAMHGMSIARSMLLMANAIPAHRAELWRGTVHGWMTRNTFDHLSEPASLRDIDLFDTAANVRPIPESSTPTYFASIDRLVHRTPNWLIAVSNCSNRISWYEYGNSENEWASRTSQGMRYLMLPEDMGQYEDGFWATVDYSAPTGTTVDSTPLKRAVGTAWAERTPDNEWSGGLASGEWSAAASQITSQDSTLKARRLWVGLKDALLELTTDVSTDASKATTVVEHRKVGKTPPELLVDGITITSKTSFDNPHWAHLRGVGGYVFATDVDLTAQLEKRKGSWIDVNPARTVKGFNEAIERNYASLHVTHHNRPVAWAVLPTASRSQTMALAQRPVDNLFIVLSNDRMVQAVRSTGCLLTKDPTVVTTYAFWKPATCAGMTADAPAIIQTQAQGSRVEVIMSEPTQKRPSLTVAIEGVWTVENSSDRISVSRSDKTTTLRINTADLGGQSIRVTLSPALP

[7] = target: T3, C. acnes hyaluronidase HylA, …; test: Microscale thermophoresis (MST), peptide titrated against fluorescent labeled HylA
[8] = target: T3, C. acnes hyaluronidase HylA, …; test: microscale thermophoresis (MST), peptide titrated against fluorescently labeled HylA, Kd model fit, mean +/- SD of triplicates
[9] = binding constant (KD), MST, peptide titrated against 30 nM fluorescent labeled HylA, values in running text and figure legend

NC(=O)[C@@H](CCC(=O)O)NC(=O)[C@H](CO)NC(=O)[C@H](CC(=O)O)NC(=O)[C@H](Cc1ccc(O)cc1)NC(=O)[C@@H](CCC(=O)O)NC(=O)[C@H](CC(=O)O)NC(=O)[C@H](Cc1ccc(O)cc1)NC(=O)[C@@H](CCC(=O)O)NC(=O)[C@H](CO)NC(=O)[C@@H](CCC(=O)O)NC(=O)[C@H](Cc1ccc(O)cc1)NC(=O)[C@@H](CCC(=O)O)NC(=O)[C@H](CC(=O)O)NC(=O)[C@@H](N)Cc1ccc(O)cc1 [i932, Tyr-Asp-dGlu-Tyr-dGlu-Ser-dGlu-Tyr-Asp-dGlu-Tyr-Asp-Ser-dGlu-NH2] (H-YD[dE]Y[dE]S[dE]YD[dE]YDS[dE]-NH2; N-terminus assumed)
efficacy in vivo [1]: highest efficacy
Kd [2, 9]: 3.06 µM
Kd ([2]; binding constant (KD), MST, peptide titrated against fluorescent labeled HylA, value): 0.0216 µM
efficacy in vitro [3]: highest efficacy

peptide i93, Tyr-Asp-dGlu-Tyr-dGlu-Ser-dGlu-NH2
Kd [4]: 912 µM
Kd [5]: 140 µM

NC(=O)[C@@H](CCC(=O)O)NC(=O)[C@H](CO)NC(=O)[C@@H](CCC(=O)O)NC(=O)[C@H](Cc1ccc(O)cc1)NC(=O)[C@@H](CCC(=O)O)NC(=O)[C@H](CC(=O)O)NC(=O)[C@@H](N)Cc1ccc(O)cc1 [i93, Tyr-Asp-dGlu-Tyr-dGlu-Ser-dGlu-NH2] (H-YD[dE]Y[dE]S[dE]-NH2; N-terminus assumed)
Kd ([2]; KD, table Peptides' properties): 140 µM
Kd [2, 9]: 911 µM

N[C@@H](Cc1ccc(O)cc1)C(=O)N[C@@H](CC(=O)O)C(=O)N[C@H](CCC(=O)O)C(=O)N[C@@H](Cc1ccc(O)cc1)C(=O)N[C@H](CCC(=O)O)C(=O)N[C@@H](CO)C(=O)N[C@H](CCC(=O)O)C(=O)O [i94, Tyr-Asp-dGlu-Tyr-dGlu-Ser-dGlu-OH] (H-YD[dE]Y[dE]S[dE]-OH; N-terminus assumed)
Kd ([2]; KD, table Peptides' properties): 4.3 µM

peptide i94, Tyr-Asp-dGlu-Tyr-dGlu-Ser-dGlu-OH
Kd [5]: 4.3 µM

YCD[dE]Y[dE]S[dE]CY-NH2 (also: cyclic peptide with Cys2 and Cys9, mode of cyclization not given here, also called 1933) [peptide i933, Tyr-Cys-Asp-dGlu-Tyr-dGlu-Ser-dGlu-Cys-Tyr-NH2]
Kd [6]: 292 µM
Kd [7]: 1.76 µM
EC50 (read off the curve) [8]: ~2 µM

B1: peptide i932, Tyr-Asp-dGlu-Tyr-dGlu-Ser-dGlu-Tyr-Asp-dGlu-Tyr-Asp-Ser-dGlu-NH2 (peptide)
peptide: YD[dE]Y[dE]S[dE]YD[dE]YDS[dE]-NH2
modifications: N-terminus assumed
SMILES: NC(=O)[C@@H](CCC(=O)O)NC(=O)[C@H](CO)NC(=O)[C@H](CC(=O)O)NC(=O)[C@H](Cc1ccc(O)cc1)NC(=O)[C@@H](CCC(=O)O)NC(=O)[C@H](CC(=O)O)NC(=O)[C@H](Cc1ccc(O)cc1)NC(=O)[C@@H](CCC(=O)O)NC(=O)[C@H](CO)NC(=O)[C@@H](CCC(=O)O)NC(=O)[C@H](Cc1ccc(O)cc1)NC(=O)[C@@H](CCC(=O)O)NC(=O)[C@H](CC(=O)O)NC(=O)[C@@H](N)Cc1ccc(O)cc1
notes: Designed by structure-based virtual screening against the HylA crystal structure; also called 1932
Kd [6]: 3.1 µM
